Where a chain is given by its changes, count along the chain named.
Assays:
[1] = target: T1, Wild type glucocorticoid receptor (Rattus norvegicus, UniProt P06536); assay: Competition binding assay with [3H]Dex, COS-7 cytosol, wild type receptor
T1 construct: Thus the full length receptor was removed from the VARO vector with BamHI and inserted into the SVL vector; expressed in transfected cells; host or cells: COS-7 (cytosol)
T1 sequence (P06536 1-795): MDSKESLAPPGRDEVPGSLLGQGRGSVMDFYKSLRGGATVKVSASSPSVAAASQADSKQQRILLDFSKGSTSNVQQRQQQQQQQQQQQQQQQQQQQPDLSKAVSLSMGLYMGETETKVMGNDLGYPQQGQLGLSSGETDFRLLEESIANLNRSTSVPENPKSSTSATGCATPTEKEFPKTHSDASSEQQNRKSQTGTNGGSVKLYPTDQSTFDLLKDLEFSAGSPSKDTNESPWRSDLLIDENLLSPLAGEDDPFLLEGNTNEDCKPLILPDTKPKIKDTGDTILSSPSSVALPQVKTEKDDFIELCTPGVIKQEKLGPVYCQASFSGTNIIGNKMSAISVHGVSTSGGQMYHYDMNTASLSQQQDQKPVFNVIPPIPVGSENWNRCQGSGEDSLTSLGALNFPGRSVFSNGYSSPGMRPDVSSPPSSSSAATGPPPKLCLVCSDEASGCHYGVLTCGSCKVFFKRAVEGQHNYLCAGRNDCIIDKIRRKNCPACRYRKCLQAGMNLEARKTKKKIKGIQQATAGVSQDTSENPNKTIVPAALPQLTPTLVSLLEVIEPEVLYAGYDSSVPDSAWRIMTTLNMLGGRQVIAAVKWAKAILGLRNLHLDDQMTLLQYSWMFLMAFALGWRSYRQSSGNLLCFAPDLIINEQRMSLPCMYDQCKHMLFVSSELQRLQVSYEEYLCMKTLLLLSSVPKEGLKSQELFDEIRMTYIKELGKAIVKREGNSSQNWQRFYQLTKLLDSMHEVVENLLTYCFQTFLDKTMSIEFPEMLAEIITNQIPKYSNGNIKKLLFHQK
Protocol: Monolayer cultures of COS-7 cells were grown in DMEM (Gibco) supplemented with 5% fetal bovine serum (FBS) (Biofluids) at 37° C. in a 5% CO2 incubator. Standard calcium phosphate transfection methods were used to introduce the wild type and mutant receptor expression vectors (pSVL) into COS-7 cells (100 mm plates [Costar] at a cell density of about 10^6 /plate were each treated with 10 μg of plasmid DNA). After ~16 hrs of incubation at 37° C. in a 5% CO2 incubator, the excess calcium phosphate and precipitate were removed by washing with phosphate buffered saline (PBS). […]
COS-7 cell cytosol containing the steroid-free receptors was prepared by cell lysis at -80° C. and centrifugation at 15,000 ×g and labeled as described for HTC cells (S. S. Simons and P. A. Miller, Biochem 23:6876-6882 (1984)). […] The specifically bound [^3 H]Dex was determined by first adding a 10% dextran-coated charcoal solution (added volume =20% of reaction solution volume) to remove free steroid and then subtracting the nonspecific binding seen in the presence of excess nonradioactive Dex. […]
The specificity of steroid binding was determined by Rodbard correction (Rodbard, 1973) of the data from a competition binding assay (S. S. Simons et al., Biochem. Biophys. Res. Comm. 86:793-800 (1979); Miller and Simons, 1988). […]

[2] = target: T2, C656G mutant glucocorticoid receptor (Rattus norvegicus, UniProt P06536, C656G/D98G); assay: Competition binding assay with [3H]Dex, COS-7 cytosol, C656G receptor; set-up: Thus the full length receptor was removed from the VARO vector with BamHI and inserted into the SVL vector; expressed in transfected cells; host or cells: COS-7 (cytosol)
T2 sequence (P06536 1-795 D98G/C656G): T1 sequence (P06536 1-795) with D98G, C656G
Protocol: Monolayer cultures of COS-7 cells were grown in DMEM (Gibco) supplemented with 5% fetal bovine serum (FBS) (Biofluids) at 37° C. in a 5% CO2 incubator. Standard calcium phosphate transfection methods were used to introduce the wild type and mutant receptor expression vectors (pSVL) into COS-7 cells (100 mm plates [Costar] at a cell density of about 10^6 /plate were each treated with 10 μg of plasmid DNA). After ~16 hrs of incubation at 37° C. in a 5% CO2 incubator, the excess calcium phosphate and precipitate were removed by washing with phosphate buffered saline (PBS). The cells were incubated at 37° C. for another ~48 hr in DMEM/ 5% FBS and harvested by trypsinization followed by centrifugation (for 10 min at 1570 ×g) and washing 3 times with PBS. The washed cells were stored at -80° C. until used.
COS-7 cell cytosol containing the steroid-free receptors was prepared by cell lysis at -80° C. and centrifugation at 15,000 ×g and labeled as described for HTC cells (S. S. Simons and P. A. Miller, Biochem 23:6876-6882 (1984)). Briefly, 30% cytosol solutions containing ~21 mM Na2 MoO4 were prepared with three parts COS-7 cell cytosol, 2 parts pH 9.5 TAPS buffer, and 5 parts pH 8.8 TAPS buffer. The total EtOH in each experiment was kept constant and at a level of ≤1%. […] After incubation for 2.5 hr, the [^3 H]Dex-Mes-labeled solutions were quick-frozen at -78° C. for subsequent SDS-polyacrylamide gel electrophoresis analysis. The specifically bound [^3 H]Dex was determined by first adding a 10% dextran-coated charcoal solution (added volume =20% of reaction solution volume) to remove free steroid and then subtracting the nonspecific binding seen in the presence of excess nonradioactive Dex.
Duplicate aliquots (72 μl) of COS-7 cell cytosol (33.5% in pH 8.8 TAPS/27 mM Na2 MoO4 buffer) were treated with 4 μl each of [^3 H]Dex (in pH 8.8 TAPS buffer) and various concentrations of non-radioactive competing steroid (in 20% EtOH in pH 8.8 TAPS buffer) (final concentration of [^3 H]Dex ≈3 ×10^-8 M). The average specific binding was determined after 2.5 or 24 hr of incubation as described above, expressed as percentage of the non-competed control and plotted versus the log10 of the concentration of the competing steroid.
The specificity of steroid binding was determined by Rodbard correction (Rodbard, 1973) of the data from a competition binding assay (S. S. Simons et al., Biochem. Biophys. Res. Comm. 86:793-800 (1979); Miller and Simons, 1988). The initial data were collected from 2.5 hr binding assays because of concerns about the stability of the receptors over longer times.

Row | Structure (SMILES) | Relative Ka of Steroid Binding to Receptor [1] | Relative Ka of Steroid Binding to Receptor [2] | effect of replacement of Cys-656 with glycine on relative affinity ([2]; C656G vs wild type, compared with effect seen for C661S, 2.5 hr incubation) | change in absolute affinity for the glucocorticoid receptor as a result of C656G mutation ([2]; C656G vs wild type, from Table 1B and Table 2, aldosterone only "perhaps")
1 | C[C@]12CC[C@@H]3c4ccc(O)cc4CC[C@H]3[C@@H]1CC[C@@H]2O [17β-Estradiol, 17β-estradiol] | 0.029 ± 0.006 | 0.0017 ± 0.0006 |  | 
2 | C[C@]12CCC(=O)C=C1CC[C@@H]1[C@@H]2[C@@H](O)C[C@]2(C=O)[C@@H](C(=O)CO)CC[C@@H]12 [Aldosterone, aldosterone] |  |  | less of an effect | decreased
3 | CC#C[C@]1(O)CC[C@H]2[C@@H]3CCC4=CC(=O)CCC4=C3[C@@H](c3ccc(N(C)C)cc3)C[C@@]21C [RU486] | 3.4 ± 1.2 | 2.5 ± 0.7 |  | 
